Test results taken from USRE48687E1, “Pyridinylaminopyrimidine derivatives, preparation process and use thereof” (Shanghai Allist Pharmaceuticals Co., Ltd., priority 2014, dated 2021).

Assays:
Type in all cases: cell-based
[1] = system: human lung cancer cell (H1975, EGFR L858R/T790M resistant mutation); experiment: Proliferation inhibition (SRB) on human lung cancer cell H1975; conditions: Homo sapiens, NCI-H1975, 72 h, SRB staining
Text: (§1) The pharmacodynamic action of the compound of the present invention in terms of inhibiting the proliferation of cancer cells may be assayed by conventional methods. […] Inhibition ratio (%)=[(blank control OD−inhibitor OD)/blank control OD]×100%
(§2) Blank control OD: the OD value of the well of normally growed cells without the action of a drug.
(§3) Inhibitor OD: the OD value of the well of cells with the action of the added compounds to be screened.
(§4) The median inhibitory concentration (IC50) value is obtained by the software GraphPad Prism 5.0 by the 4-parameter logistic curve fit calculation. Each experiment is repeated three times, and the average IC50 value for three experiments is used as the final index for the inhibitory ability.
(§5) Cells in the logarithmic phase were inoculated to 96-well culture plates (cell density: 5000/well, cell suspension: 180 μl/well), and cultured at 37° C. under 5% CO2 for 24 hours. After the culturing, the cells adhered to the well walls. Each of compounds was dissolved in DMSO in advance to formulate a […] stock solution. Upon testing, the stock solution was diluted with complete medium to 10 times the target concentration in another 96-cell plate. And then the compound was added at 20 μl/cell in the 96-well plate in which the cells were inoculated, i.e. the target concentration could be reached. The well for each concentration was triplicated, and the blank control was established. Cells continued to be cultured at 37° C. under 5% CO2 for 72 hours. After the termination of culturing, 50 μl pre-cooled (4° C.) 50% trichloroacetic acid, i.e., TCA was added to each of wells (final concentration=10%), and was placed at 4° C. for 1 hour to fix the cells. The resulting matter was washed with purified water for at least 5 times, and dried naturally in air or at 60° C. in an oven. 4 mg/ml Sulforhodamine B (SRB) solution prepared by 1% glacial acetic acid/purified water was added at 100 μl/well to each well so as to stain for 1 hour at room temperature. The supernatant was discarded. The residue was washed with 1% acetic acid for at least 5 times to remove the non-specifically binding, and dried for use. To each well was added 150 μl of 10 mM Tris-HCl solution for dissolving the contents therein.

[2] = system: human lung cancer cell (HCC827, EGFR Exon 19 deletion activating mutation); experiment: Proliferation inhibition (SRB) on human lung cancer cell HCC827; conditions: Homo sapiens, HCC827, 72 h, SRB staining
Text: as §1, §2, §3, §4, §5

[3] = system: human skin cancer cell (A431, wild-type EGFR); experiment: Proliferation inhibition (SRB) on human skin cancer cell A431; conditions: Homo sapiens, A-431, 72 h, SRB staining
Text: as §1, §2, §3, §4, §5

SMILES	IC50 [1] [nM]	IC50 [2] [nM]	IC50 [3] [nM]
C=CC(=O)Nc1cc(Nc2ncc(Cl)c(-c3cn(C)c4cc(F)ccc34)n2)c(OC(C)C)nc1N(C)CCN(C)C [Example 7 compound, N-{2-{[2-(dimethylamino)ethyl](methyl)amino}-6-isopropyloxy-5-{5-chloro-[4-(1-methyl-6-fluoro-1H-indol-3-yl)pyrimidin-2-yl]amino}pyridin-3-yl}acrylamide]	16.7	1.4	307
C=CC(=O)Nc1cc(Nc2ncc(Cl)c(-c3cnc(N)nc3)n2)c(OC(C)C)nc1N(C)CCN(C)C [Example 23 compound, N-{2-{[2-(dimethylamino)ethyl](methyl)amino}-6-isopropyloxy-5-{[5-chloro-2′-amino-(4,5′-bipyrimidine)-2-yl]amino}pyridin-3-yl}acrylamide]	30.7	3.08	1140
C=CC(=O)Nc1cc(Nc2ncc(Cl)c(-c3cnc4c(ccn4C)c3)n2)c(OC(C)C)nc1N(C)CCN(C)C [Example 20 compound, N-{2-{[2-(dimethylamino)ethyl](methyl)amino}-6-isopropyloxy-5-{[5-chloro-4-(1-methyl-1H-pyrrolo[2,3-b]pyridin-5-yl)pyrimidin-2-yl]amino}pyridin-3-yl}acrylamide]	42.4	8.97	801

Now from value to molecule:

IC50 [1] [nM]	IC50 [2] [nM]	IC50 [3] [nM]	SMILES
4.83	2.58	181	C=CC(=O)Nc1cc(Nc2nccc(-c3cn(C)c4ccc(F)cc34)n2)c(OC(C)C)nc1N(C)CCN(C)C [Example 5 compound, N-{2-{[2-(dimethylamino)ethyl](methyl)amino}-6-isopropyloxy-5-{[4-(1-methyl-5-fluoro-1H-indol-3-yl)pyrimidin-2-yl]amino}pyridin-3-yl}acrylamide]
2.28	1.34	224	C=CC(=O)Nc1cc(Nc2nccc(-c3cn(C)c4ccccc34)n2)c(OCC(F)(F)F)nc1N(C)CCN(C)C [Example 3 compound, N-{2-{[2-(dimethylamino)ethyl](methyl)amino}-6-(2,2,2-trifluoroethoxyl)-5-{[4-(1-methyl-1H-indol-3-yl)pyrimidin-2-yl]amino}pyridin-3-yl}acrylamide]
